In patent US12264163B2, “Compounds and methods for treating fibrotic pathologies” (Mayo Foundation for Medical Education and Research, priority 2019, dated 2025):
Counter-ions that a name gives are not always drawn.

What was measured:
YAP/TAZ [1] = test: YAP/TAZ nuclear localization in IPF patient-derived lung fibroblasts treated with dopaminergic agonists; type: cell-based, human; settings: 10 μM, 2 hours
Description: IPF patient-derived lung fibroblasts cells treated 2 hours prior to fixation with diverse dopaminergic agonists (10 μM). N=4 different patient samples. % nuclear localization of YAP/TAZ was determined using automated imaging software. Scale bar represents 100 μm.
(§1) Media was then exchanged for the indicated conditions for each experiment. […] Cells or tissue sections were incubated overnight with mouse monoclonal antibody against αSMA (Sigma-Aldrich F3777), and/or a rabbit monoclonal antibody against YAP/TAZ (Cell Signaling D24E4) diluted 1:200 in PBS with 1% BSA. Cells were then washed and exposed to flourescence-conjugated secondary antibodies (Invitrogen) diluted 1:1000 and DAPI (Thermo Fisher Scientific). Images were taken with a Cytation5 (BioTek) microscope. For scoring αSMA positive cells (FIG. 12), an observer blinded to the treatment conditions counted αSMA-positive cells using a visual threshold for bright fibrous staining; a minimum of 200 cells was counted for each condition. YAP/TAZ localization was quantified (FIGS. 6-10, 24-26, and 29-30) using Gen5 (Biotek) software. Images were taken at 4× magnification of both DAPI and YAP/TAZ staining. […] Quantification of double positive (YAP/TAZ and αSMA) cells from lung tissue sections (FIG. 17-21) was performed similarly; however separate thresholds were established for both YAP/TAZ and αSMA. A minimum of 4000 cells was quantified for each mouse.

αSMA = αSMA intensity (fibroblast activation) in IPF patient-derived lung fibroblasts + TGFβ, dopaminergic agonist library; type: cell-based, human; settings: 1 μM + TGFβ; for αSMA intensity (% of DMSO control): 72 hours
Description: as §1

YAP/TAZ [2] = test: YAP/TAZ nuclear localization in IMR-90 and other fibroblasts / mesenchymal cells (immunofluorescence); type: cell-based, human
Description: Selective agonists of dopamine receptor D1 with varying efficacy inhibit YAP/TAZ nuclear localization; this effect can be overcome by treatment with a DRD1 receptor antagonist (SCH 39166, 3 μM), (Dihydrexidine, 10 μM). IMR-90 cells treated 2 hours prior to fixation. N=4 (****p<0.0001 vs. 0.10% DMSO vehicle control). Scale bar represents 100 μm.
In each case DHX treatment (10 μM) can reverse this effect on YAP/TAZ. IMR-90 cells plated densely onto plastic cell culture plates for 24 hours in media containing 0.1% FBS, treated for 2 hours prior to fixation. N=4 (****p<0.0001 vs. 0.1% DMSO vehicle control), (++++p<0.0001 vs. the respective stimulated agonist ET-1, LPA, or 5-HT). Scale bar represents 100 μm.
Mesenchymal cells derived from lung (IMR-90 and IPF-FBs) hepatic stellate cells (HSC), human adult cardiac fibroblasts, (HACF) and human dermal fibroblasts (HDF) were plated densely (Confluent) or sparsely (Control and all remaining conditions) onto plastic cell culture plates for 24 hours in media containing 0.10% FBS, treated for 2 hours with Rho kinase inhibitor Y27632, adenylate cyclase activator forskolin and DHX. N=4, Cells that were positive for nuclear YAP/TAZ were quantified by automated image analysis.
Immunofluorescence Microscopy: Cells were plated into 96 well plates (Corning 3603) in their specific growth media and allowed to attach (8 hours). Media was then exchanged for the indicated conditions for each experiment. Cells were fixed in 3.7% formalin (Sigma-Aldrich), permeabilized in 0.25% Triton X-100 (Sigma-Aldrich) and then blocked with 1% BSA for 1 h. Cells or tissue sections were incubated overnight with mouse monoclonal antibody against αSMA (Sigma-Aldrich F3777), and/or a rabbit monoclonal antibody against YAP/TAZ (Cell Signaling D24E4) diluted 1:200 in PBS with 1% BSA. Cells were then washed and exposed to flourescence-conjugated secondary antibodies (Invitrogen) diluted 1:1000 and DAPI (Thermo Fisher Scientific). Images were taken with a Cytation5 (BioTek) microscope. For scoring αSMA positive cells (FIG. 12), an observer blinded to the treatment conditions counted αSMA-positive cells using a visual threshold for bright fibrous staining; a minimum of 200 cells was counted for each condition. YAP/TAZ localization was quantified (FIGS. 6-10, 24-26, and 29-30) using Gen5 (Biotek) software. Images were taken at 4× magnification of both DAPI and YAP/TAZ staining. […] Quantification of double positive (YAP/TAZ and αSMA) cells from lung tissue sections (FIG. 17-21) was performed similarly; however separate thresholds were established for both YAP/TAZ and αSMA. A minimum of 4000 cells was quantified for each mouse.

D1 receptor = settings: cited from earlier work

Compound	Nuclear localization (% of total cells) (YAP/TAZ [1]; IPF-1 patient fibroblasts)	Nuclear localization (% of total cells) (YAP/TAZ [1]; IPF-2 patient fibroblasts)	Nuclear localization (% of total cells) (YAP/TAZ [1]; IPF-3 patient fibroblasts)	Nuclear localization (% of total cells) (YAP/TAZ [1]; IPF-4 patient fibroblasts)	αSMA intensity (% of DMSO control) (αSMA; IPF-1 patient fibroblasts)	αSMA intensity (% of DMSO control) (αSMA; IPF-2 patient fibroblasts)	αSMA intensity (% of DMSO control) (αSMA; IPF-3 patient fibroblasts)	αSMA intensity (% of DMSO control) (αSMA; IPF-4 patient fibroblasts)	potency of inhibition of YAP/TAZ nuclear localization, normal vs IPF lung fibroblasts (YAP/TAZ [2]; normal lung fibroblasts vs those from a patient with IPF)	activity at 1 µM (αSMA; Homo sapiens, SMA, 72 h, IPF-3 patient fibroblasts, read-out: αSMA intensity (% of DMSO control))	YAP/TAZ nuclear localization (YAP/TAZ [2]; fibroblasts / mesenchymal cells on plastic, 2 hours)	efficacy at elevating cAMP (D1 receptor) (D1 receptor)
CCCN(CCC)CCc1ccc(O)c(O)c1 [Dipropyldopamine•HBr, Dipropyldopamine]	69.18 % of total cells	74.36 % of total cells	65.5 % of total cells	51.82 % of total cells	48.72 % of DMSO control	28.11 % of DMSO control	40.34 % of DMSO control	25.86 % of DMSO control				
CCCN1CCC[C@@H]2Cc3nc(N)ncc3C[C@H]21.Cl.Cl [LY-163,502•2HCl, LY-163,502]	73.37 % of total cells	60.97 % of total cells	59.43 % of total cells	66.49 % of total cells	88.99 % of DMSO control	72.86 % of DMSO control	75.3 % of DMSO control	86.7894 % of DMSO control				
Cc1cccc(C(=O)NCN2CCN(c3ccccc3C#N)CC2)c1.O=C(O)/C=C\C(=O)O [PD 168077 maleate, PD 168077]	67.08 % of total cells	42.44 % of total cells	63.68 % of total cells	68.4 % of total cells	75.27 % of DMSO control	56.15 % of DMSO control	75.77 % of DMSO control	66.5 % of DMSO control				
CCCCC[C@H](O)/C=C/[C@H]1[C@H](O)CC(=O)[C@@H]1C/C=C\CCCC(=O)O [PGE2, prostaglandin E2]									reduced potency			
Br.C=CCN1CCc2c(cc(O)c(O)c2Br)[C@@H](c2ccccc2)C1 [R(+)-6-BROMO-APB•HBr, R(+)-6-BROMO-APB]	28.37 % of total cells	38 % of total cells	36 % of total cells	25.65 % of total cells	11.25 % of DMSO control	2.507 % of DMSO control	0.8506 % of DMSO control	22.82 % of DMSO control				
Br.CCCN1CCc2cc(O)cc3c2[C@H]1Cc1ccc(O)c(O)c1-3 [R(−)-2,10,11-Trihydroxy-N-propyl-noraporphine]	32.87 % of total cells	35.25 % of total cells	37.7 % of total cells	25.36 % of total cells	4.895 % of DMSO control	8.436 % of DMSO control	2.988 % of DMSO control	25.61 % of DMSO control				
COc1ccc2c(c1O)-c1cc(O)cc3c1[C@@H](C2)N(C)CC3.Cl [R(−)-2,11-dihydroxy-10-methoxyapomorphine]	85.18 % of total cells	74.67 % of total cells	80.73 % of total cells	80.45 % of total cells	91.84 % of DMSO control	92.8 % of DMSO control	81.85 % of DMSO control	85.61 % of DMSO control				
CCCN(CCC)CCc1cccc2c1CC(=O)N2 [Ropinirole HCl, Ropinirole]	69.6036 % of total cells	58.68 % of total cells	64.66 % of total cells	65.7 % of total cells						79%		
Oc1cc2c(c(Cl)c1O)CCNCC2c1ccccc1 (stereo not shown) [SKF-81297]											reduced nuclear localization of YAP/TAZ	
Oc1ccc2c(c1O)Cc1cccc3c1[C@H]2CNC3 [dinapsoline]												full magnitude cAMP response
Oc1ccc2c(c1O)Oc1cccc3c1C2CNC3 (stereo not shown) [dinoxyline]												full magnitude cAMP response
R(−)-2,10,11-Trihydroxyaporphine [R(−)-2,10,11-Trihydroxyaporphine•HBr]	13.71 % of total cells	22.15 % of total cells	24.15 % of total cells	17.75 % of total cells	2.888 % of DMSO control	1.698 % of DMSO control	7.646 % of DMSO control	15.9942 % of DMSO control				
R(−)-Propylnorapomorphine [R(−)-Propylnorapomorphine•HCl]	28.35 % of total cells	26.71 % of total cells	42.74 % of total cells	29.03 % of total cells	5.081 % of DMSO control	1.879 % of DMSO control	5.561 % of DMSO control	19.96 % of DMSO control				
